In US8183005B1, “Pharmaceutical agents for treating HCV infections” (priority 2004, dated 2012):
Like-named read-outs stand apart in the source and are kept apart here.

Key:
in vitro = assay type: cell-based; settings: human
Description: (§1) Firefly luciferase HCV replicon cells (Huh-3-1) suspended in Dulbecco's MEM (Gibco Cat. No. 10569) containing 5% fetal bovine serum (Hyclone Cat. No. SH30071.03) were plated onto a 96-well plate at 5000 cells/well, and cultured overnight under 5% CO2 at 37° C. Approximately 20 hours later, fumonisin B1 was added to a final concentration of 1.37 μM to 1000 μM by carrying out a sequential three-fold dilution, and the cells were then cultured for three more days. The assay was carried out by preparing two types of assay plates: one an opaque white plate and the other a transparent plate. After culturing, the white plate was subjected to the Steady-Glo Luciferase Assay System (Promega Cat. No. E2520). More specifically, 100 μL of reagent was added to each well, mixed three to four times using a pipette, and then stood for five minutes before luminescence was measured using 1450 MicroBeta TRILUX (WALLAC). IC50 (50% inhibitory concentration) of a pharmaceutical agent was calculated by subtracting the value obtained without adding the cells as the background value from all of the values, and then defining the level of inhibition without addition of the pharmaceutical agent as 0%. A Cell Counting Kit-8 (DOJINDO Laboratories, Cat. No. 341-07761) was used for the cytotoxicity assays. 10 μL of reagent was added to each well, mixed three to four times using a pipette, and then stood for approximately 30 minutes; measurements were performed when OD450 nm reached approximately 1.0. IC50 (50% inhibitory concentration) of a pharmaceutical agent was calculated by subtracting the value obtained without adding the cells as the background value from all of the values, and then defining the level of inhibition without addition of the pharmaceutical agent as 0%.
(§2) Based on the results of Example 5, the following method was used to measure the effect on cytotoxicity and HCV replicon activity under conditions in which Huh-3-1 cells show reduced LCB1 expression. More specifically, cells were plated onto a 96-well plate at 3500 cells per well, and cultured overnight under 5% CO2 at 37° C. 1.75 μL of 2 μM siRNA was added to 23.3 μL of ECR buffer (buffer included in the RNAiFect Kit), this was stirred vigorously, and then 0.31 μL of RNAiFect transfection reagent was added. This was stirred gently at room temperature and then allowed to stand for ten minutes. siRNA was added to a final concentration of 35 nM, and this was cultured for four days. The effect on cytotoxicity was determined by adding 10 μL of Cell Counting Kit-8 (DOJINDO Laboratories Cat. No. 341-07761) to the medium, mixing three to four times using a pipette, and then allowing this to stand for one hour at 37° C. Absorbance was then measured at 450 nm using a microplate reader Emax (Molecular Devices). After incubation, the medium was exchanged for fresh medium, and the plate was subjected to the Steady-Glo Luciferase Assay System (Promega Cat. No. E2520). 100 μL of reagent was added to each well, mixed three to four times using a pipette, and then allowed to stand for five minutes. Luminescence was then measured using 1450 MicroBeta TRILUX (WALLAC) to determine the HCV replicon activity. IC50 (50% inhibitory concentration) of a pharmaceutical agent was calculated by subtracting the value obtained without adding the cells as the background value from all of the values, and then defining the level of inhibition without addition of the pharmaceutical agent as 0%.
A Cell Counting Kit-8 (DOJINDO Laboratories, Cat. No. 341-07761) was used for the cytotoxicity assays. More specifically, 10 μL of Cell Counting Kit-8 was added to the transparent plate, and this was warmed at 37° C. for 30 to 60 minutes. Using a 96-well plate reader, absorbance was measured at a wavelength of 450 nm with a reference wavelength of 630 nm. […]

HCV-NS3 protein = assay: Immunostaining of HCV-NS3 protein in HCV replicon cells; assay type: cell-based; settings: 100 nM, 96 hours
Description: HCV replicon cells were treated with 100 nM of the compound represented by formula (II) for 96 hours, and then the cells were fixed in 3.7% formaldehyde. Blocking with 3% BSA was followed by incubation with an NS3 antibody (provided by F. Hoffman-La Roche), and then the washed cells were incubated with a Texas-Red-labeled rabbit IgG (Molecular probe), and analyzed using a fluorescence microscope (FIG. 10).

NS3, NS5A, and NS5B = assay: Western blotting of NS3, NS5A and NS5B in replicon cells; assay type: cell-based, HCV; settings: 100 nM, 48 hours and 96 hours
Description: Replicon cells were treated with 100 nM of the compound represented by formula (II) for the lengths of time indicated in FIG. 11 (48 hours and 96 hours). Western blot analysis was performed using a method similar to that of Example 5.

[1] = system: de novo syntheses of ceramide and sphingomyelin; assay: De novo syntheses of ceramide and sphingomyelin, [14C]serine labeling; assay type: cell-based; settings: HCV replicon cells, 48 hours treatment, [14C]serine three hours
Description: HCV replicon cells were treated for 48 hours with the compound represented by formula (II) at the concentrations indicated in FIG. 13. The cells were then labeled for three hours with [14C]serine. After extraction with chloroform/methanol (1:2, v/v), de novo synthesized ceramide (FIG. 13A) and sphingomyelin (FIG. 13B) were separated by thin layer chromatography.

HCV replication = assay: Recovery from replication inhibition by C2-ceramide, Western blot; assay type: cell-based; settings: C2-ceramide added at the same time, 96 hours
Description: To elucidate whether the inhibitory activity of the compound represented by formula (II) against the HCV replicon is dependent on the sphingolipid biosynthetic pathway, cell-permeable ceramide, C2-ceramide (Sigma, Cat. No. A7191), was added to HCV replicon cells at the same time as the compound represented by formula (II), and these were cultured for 96 hours. These cell extracts were used to perform Western blot analysis using a method similar to that of Example 5.

[2] = system: raft proteins (NS5B, NS5A, caveolin-2); assay: Effect on raft proteins, sucrose density gradient fractionation, Western blot or ELISA; assay type: cell-based; settings: 72 hours
Description: 1 mM of the compound represented by formula (II) was added to the HCV replicon cells, then 72 hours later the cell extract was treated for one hour with a solubilizer, 1% Nonidet P-40 (Nacalai tesque, Cat. No. 252-23). Fractions 1 to 9 were separated by the sucrose density gradient fractionation method, and Western blot analysis was performed using a method similar to that of Example 5. […] Caveolin-2 expression was confirmed using a caveolin-2 antibody (BD Transduction, Cat. No 610684).
1 μM of the compound represented by formula (II) was added to the HCV replicon cells, then 72 hours later the cell extract was treated for one hour with 1% NP-40. Raft proteins (solubilizer-resistant) and non-raft proteins were separated using the sucrose density gradient fractionation method, diluted with PBS, concentrated, and then quantified by ELISA analysis.

HCV replicon = HCV replicon assay (luciferase); assay type: cell-based; settings: HCV replicon cells, 72 hours
Description: as §1, §2
First, to quantify the copy number of HCV-RNA, an RNA was constructed such that a firefly-derived luciferase gene was introduced into the HCV-RNA as a reporter gene. According to the method of Krieger et al. (J. Virol., 75: 4614), the luciferase gene was introduced immediately after the Internal Ribosome Entry Site (IRES) of the HCV gene, so that the gene was fused with the neomycin-resistance gene. […]

HCV RNA replication = assay: Northern blot analysis of HCV RNA replication in Huh-3-1 replicon cells; assay type: cell-based; settings: Hepatitis C virus, 72 h, read-out: concentration reducing replicon RNA by 50%
Description: Cells were collected 72 hours later, total RNAs were extracted, and this was subjected to Northern blot analysis using a neomycin resistance gene as a probe according to the NorthernMax Kit method, available from Ambion.
The probes were labeled with biotin using a BrightStar Psoralen-Biotin Kit (Ambion #9860G3).
1 μg of the total RNAs were electrophoresed on a 1% agarose gel, and then the RNAs were stained with ethidium bromide. The resulting gel was photographed and decolorized, then NorthernMax transfer buffer was used for two hours to transfer the RNAs to the transfer membrane. While the membrane was still wet, the RNAs were fixed to the transfer membrane using a UV crosslinker. The membrane was pretreated in ULTRAhyb for 30 minutes at 42° C. while being rotated in a Hybridization oven. This pretreatment solution was then discarded, and the membrane was treated by adding the biotinylated neomycin resistance gene and 10 mL of ULTRAhyb solution, and then shaking overnight at 42° C.
The ULTRAhyb solution was then discarded, and 15 mL of High Stringency Buffer pre-warmed to 42° C. was added to the membrane, and this was shaken for 30 minutes at 42° C. This same operation was then repeated once. The transfer membrane was washed using enough wash buffer to soak the membrane. The transfer membrane was shaken in a blocking buffer for 30 minutes, then this solution was discarded. […]

HCV protein (NS3) = assay: Western blot analysis of HCV protein synthesis in Huh-3-1 replicon cells; assay type: cell-based; settings: Hepatitis C virus, 72 h, read-out: concentration reducing expression of HCV proteins by 50%
Description: After 72 hours, the culture medium was discarded, phosphate buffered saline (PBS) was added, and the cells were dislodged by pipetting and then collected by centrifugation. A lysis solution for phosphate (50 mM Tris-HCl (pH 7.5), 0.5% Triton, 3 mM EDTA, 150 mM NaCl, 12 mM glycerophosphate, 50 mM NaF, 1 mM Na3VO4, 0.5 mM PMSF, and 0.5 mM aporotinin) was added to the cells, the cells were disrupted by pipetting, and the supernatant was collected by high-speed centrifugation. A protein assay was carried out using Dye Reagent (Nacalai Tesque #074-27) (Bovine Gamma Globulin, Standard solution, BIO-RAD #500-0005). […] Rainbow molecular weight markers (Amersham Bioscience #RPN756) were used as molecular weight size markers. […] Western analysis was performed using a rabbit antibody against NS3, derived from an HCV protein. Anti-actin rabbit antibody was used as an internal standard.

Row | Compound | CC50 (in vitro; HCV replicon cells, FIG. 9, read-out: cytotoxicity CC50) [nM] | CC50 (in vitro; Huh-3-1 replicon cells, three days, Cell Counting Kit-8, read-out: Cytotoxicity CC50) [nM] | HCV-NS3 protein around the nucleus (immunostaining) (HCV-NS3 protein) | expression levels of NS3, NS5A and NS5B (NS3, NS5A, and NS5B) | intracellular de novo synthesis of ceramide [1] | intracellular de novo synthesis of sphingomyelin [1] | inhibition of HCV replication in presence of C2-ceramide (HCV replication) | dissociation of NS5B from the raft ([2]; 1 μM, 1% NP-40, ELISA) | effect on NS5A and caveolin-2 ([2]; 1 mM, 1% Nonidet P-40, Western blot) | HCV replication (replicon activity) versus viable cell count (HCV replicon) | IC50 (HCV RNA replication) [nM] | IC50 (HCV protein (NS3)) [nM]
1 | CCCCCCCC(=O)CCCCCC/C=C/[C@H](C(=O)N[C@@H](Cc1ccc(OCC=C(C)C)cc1)C(=O)O)[C@@](O)(CC(=O)O)C(=O)O [Compound (40)] | > 50 | > 5000 | disappeared | reduced | inhibited | inhibited | suppressed in a manner dependent on C2-ceramide concentration | significant dissociation of NS5B from the raft | could not be confirmed | – | – | –
2 | CCCCCCC(=O)CCCCCC/C=C/C[C@@H](O)[C@H](O)[C@@](N)(CO)C(=O)O [myriocin] | – | – | – | – | – | – | – | – | – | suppressing the HCV replication at non-cytotoxic concentrations | 1 to 10 | 1 to 10
